# Reference: patent US20040266002A1, “Use of abscisic acid in somatic embryogenesis of pine trees” (Weyerhaeuser Company, priority 2003, published 2004)
# Marks after values point to notes of the source that are not given here.
# System: Loblolly pine (Pinus taeda) pre-cotyledonary somatic embryos
# Experiment: Abscisic acid pulse during development of Loblolly pine somatic embryos
# Format: cell-based
# Description: Development: Pre-cotyledonary somatic embryos were transferred from maintenance medium into solid development medium BM3 containing 25 mg/L abscisic acid for four weeks to yield treated pre-cotyledonary somatic embryos. The development medium either lacks growth hormones entirely, or has them present only at very low levels. The further inclusion of an adsorbent composition in this medium is advantageous. The adsorbent composition is normally present at a concentration of about 0.1-5 g/L, more generally about 0.25-2.5 g/L. Gelrite was included at a concentration of about 0.25%.
# After culturing pre-cotyledonary embryos on solid development medium containing 25 mg/L abscisic acid for 4 weeks, the abscisic acid-treated pre-cotyledonary embryos were transferred on a filter paper support to solid development medium without abscisic acid. The solid development medium without abscisic acid had the same composition as development medium BM3. Development is preferably carried out in complete darkness at a temperature of 22°-25 C until elongated cotyledonary embryos have developed. Development time is typically several weeks, such as 10 to 12 weeks.
# Female gametophytes containing zygotic embryos were removed from seeds of genotypes A, B and C, as described in EXAMPLE 1, above. The induction and maintenance stages were as described in EXAMPLE 1.
# To test the effect of a pulse of abscisic acid, pre-cotyledonary embryos were transferred to a filter paper support placed on solid development medium BM3 containing abscisic acid. Six different treatments were tested. The concentration of abscisic acid, and the time period during which the pre-cotyledonary embryos were exposed to the abscisic acid during each treatment, are shown in Table 3.
# As a control, pre-cotyledonary embryos were maintained in development medium BM3 containing 25 mg/L abscisic acid for twelve weeks. After twelve weeks, both control and experimental embryos were taken through the standard post-development treatments as described in EXAMPLE 1. Germination was assessed after twelve weeks on germination media in the light at room temperature.
smiles,measurement,setting,value
"CC1=CC(=O)CC(C)(C)[C@@]1(O)/C=C/C(C)=C\C(=O)O [Abscisic Acid, abscisic acid]",Mean Dry Weight,"All genotypes combined, Control: 25 mg/L abscisic acid weeks 1-12",0.37 mg/emb
same,Mean Dry Weight,"All genotypes combined, Treatment 1: 25 mg/L weeks 1-3, 0 weeks 4-12",0.49* mg/emb
same,Mean Dry Weight,"All genotypes combined, Treatment 2: 25 mg/L weeks 1-5, 0 weeks 6-12",0.47* mg/emb
same,Mean Dry Weight,"All genotypes combined, Treatment 3: 25 mg/L weeks 1-7, 0 weeks 8-12",0.47* mg/emb
same,Mean Dry Weight,"All genotypes combined, Treatment 4: 25 mg/L weeks 1-9, 0 weeks 10-12",0.48* mg/emb
same,Mean Dry Weight,"All genotypes combined, Treatment 5: 25 mg/L weeks 1-3, 15 weeks 4-5, 10 weeks 6-7, 5 weeks 8-9, 0 weeks 10-12",0.50* mg/emb
same,Mean Dry Weight,"All genotypes combined, Treatment 6: 25 mg/L weeks 1-5, 15 weeks 6-7, 10 weeks 8-9, 0 weeks 10-12",0.48* mg/emb
same,Embryo morphology at the end of development,both control (continuous abscisic acid) and experimental (pulse) embryos,"good morphological form, good cotyledon development, and normal color"
same,Mean Dry Weight,"genotype A, Control: 25 mg/L abscisic acid weeks 1-12",0.27 mg/emb
same,Mean Dry Weight,"genotype A, Treatment 1: 25 mg/L weeks 1-3, 0 weeks 4-12",0.38* mg/emb
same,Mean Dry Weight,"genotype A, Treatment 2: 25 mg/L weeks 1-5, 0 weeks 6-12",0.36* mg/emb
same,Mean Dry Weight,"genotype A, Treatment 3: 25 mg/L weeks 1-7, 0 weeks 8-12",0.34 mg/emb
same,Mean Dry Weight,"genotype A, Treatment 4: 25 mg/L weeks 1-9, 0 weeks 10-12",0.32 mg/emb
same,Mean Dry Weight,"genotype A, Treatment 5: 25 mg/L weeks 1-3, 15 weeks 4-5, 10 weeks 6-7, 5 weeks 8-9, 0 weeks 10-12",0.36* mg/emb
same,Mean Dry Weight,"genotype A, Treatment 6: 25 mg/L weeks 1-5, 15 weeks 6-7, 10 weeks 8-9, 0 weeks 10-12",0.33 mg/emb
same,Mean Dry Weight,"genotype B, Control: 25 mg/L abscisic acid weeks 1-12",0.31 mg/emb
same,Mean Dry Weight,"genotype B, Treatment 1: 25 mg/L weeks 1-3, 0 weeks 4-12",0.32 mg/emb
same,Mean Dry Weight,"genotype B, Treatment 2: 25 mg/L weeks 1-5, 0 weeks 6-12",0.31 mg/emb
same,Mean Dry Weight,"genotype B, Treatment 3: 25 mg/L weeks 1-7, 0 weeks 8-12",0.37 mg/emb
same,Mean Dry Weight,"genotype B, Treatment 4: 25 mg/L weeks 1-9, 0 weeks 10-12",0.37 mg/emb
same,Mean Dry Weight,"genotype B, Treatment 5: 25 mg/L weeks 1-3, 15 weeks 4-5, 10 weeks 6-7, 5 weeks 8-9, 0 weeks 10-12",0.36 mg/emb
same,Mean Dry Weight,"genotype B, Treatment 6: 25 mg/L weeks 1-5, 15 weeks 6-7, 10 weeks 8-9, 0 weeks 10-12",0.36 mg/emb
same,Mean Dry Weight,"genotype C, Control: 25 mg/L abscisic acid weeks 1-12",0.55 mg/emb
same,Mean Dry Weight,"genotype C, Treatment 1: 25 mg/L weeks 1-3, 0 weeks 4-12",0.79* mg/emb
same,Mean Dry Weight,"genotype C, Treatment 2: 25 mg/L weeks 1-5, 0 weeks 6-12",0.80* mg/emb
same,Mean Dry Weight,"genotype C, Treatment 3: 25 mg/L weeks 1-7, 0 weeks 8-12",0.69 mg/emb
same,Mean Dry Weight,"genotype C, Treatment 4: 25 mg/L weeks 1-9, 0 weeks 10-12",0.76* mg/emb
same,Mean Dry Weight,"genotype C, Treatment 5: 25 mg/L weeks 1-3, 15 weeks 4-5, 10 weeks 6-7, 5 weeks 8-9, 0 weeks 10-12",0.90* mg/emb
same,Mean Dry Weight,"genotype C, Treatment 6: 25 mg/L weeks 1-5, 15 weeks 6-7, 10 weeks 8-9, 0 weeks 10-12",0.84* mg/emb
same,Dry weight of embryos receiving the abscisic acid pulse versus control embryos,pulse treatments versus control with 25 mg/L abscisic acid for twelve weeks,higher dry weight than the control embryos
